Data published in article PMC7394379, “Structure-guided screening strategy combining surface plasmon resonance with nuclear magnetic resonance for identification of small-molecule Argonaute 2 inhibitors” (PLoS ONE, 2020).
Like-named read-outs stand apart in the source and are kept apart here.

What was measured:
AGO2 MID domain [1] = biological target: T1, AGO2 MID domain (Homo sapiens, UniProt Q9UKV8); experiment: SPR inhibition, immobilised biotin-PEG-UMP versus AGO2 MID domain; assay type: binding; conditions: HBS-EP+ pH 7.4, 2 mM DTT, 5% DMSO; competition at the 5'-terminal nucleotide site
T1 construct: MID domain Gln432-Leu578 (147 residues); pE-SUMOpro-3 His-SUMO fusion, tag removed by SUMO protease 2; E. coli BL21(DE3); 15N-labelled for NMR

AGO2 MID domain [2] = biological target: T1, AGO2 MID domain; experiment: as above; assay type: binding
AGO2 MID domain [3] = biological target: T1, AGO2 MID domain; experiment: as above; assay type: binding; conditions: read-out: % inhibition at 500 μmol/L
AGO2 MID domain [4] = biological target: T1, AGO2 MID domain; experiment: 1H-15N HSQC NMR chemical shift perturbation; conditions: 20 °C, pH 6.70, 25 mM sodium phosphate, 150 mM NaCl, 2 mM TCEP; two binding sites suggested, one overlapping AMP
[5] = HBS-EP+ pH 7.4, 2 mM DTT, 5% DMSO, competition at the 5'-terminal nucleotide site

Row | SMILES | IC30 (AGO2 MID domain [1]) | IC50 (AGO2 MID domain [2]; [5]) | also measured
1 | Cc1cccc(C(Nc2ccc3c(c2)OC(F)(F)O3)P(=O)(O)O)c1 (stereo not drawn) [Z317095268] | Three of the hit compounds showed stronger inhibition than BCI-137 in the SPR analysis |  | 
2 | O=c1ccn([C@@H]2O[C@H](COP(=O)(O)O)[C@@H](O)[C@H]2O)c(=O)[nH]1 [UMP] |  | AMP and UMP showed a stronger inhibition than CMP and GMP | 
3 | Nc1ncnc2c1ncn2[C@@H]1O[C@H](CO)[C@@H](O)[C@H]1O [adenosine] |  |  | inhibition at 500 µM (AGO2 MID domain [3]): < 10%
4 | Nc1ncnc2c1ncn2[C@@H]1O[C@H](COP(=O)(O)O)[C@@H](O)[C@H]1O [AMP] |  |  | IC50 (AGO2 MID domain [2]; read-out: IC50): ~200 µM
5 | COc1ccc(-c2nn(CCC(=O)O)cc2C=C2SC(=S)NC2=O)cc1 [Z56862757] | Three of the hit compounds showed stronger inhibition than BCI-137 in the SPR analysis |  | 1H-15N HSQC NMR chemical shift perturbation (AGO2 MID domain [4]): NMR analysis suggests two Z56862757 binding sites, only one site could overlap with AMP
6 | Nc1ccn([C@@H]2O[C@H](COP(=O)(O)O)[C@@H](O)[C@H]2O)c(=O)n1 [CMP] |  | AMP and UMP showed a stronger inhibition than CMP and GMP | 
7 | COc1cc(C=C2SC(=S)N(C(CCC(=O)O)C(=O)O)C2=O)cc(Cl)c1O (stereo not drawn) [UZI/1999527] | Three of the hit compounds showed stronger inhibition than BCI-137 in the SPR analysis |  | 
8 | Nc1nc2c(ncn2[C@@H]2O[C@H](COP(=O)(O)O)[C@@H](O)[C@H]2O)c(=O)[nH]1 [GMP] |  | AMP and UMP showed a stronger inhibition than CMP and GMP | 
